In patent US20240197891A1, “PHARMACEUTICAL COMPOSITIONS COMPRISING POH DERIVATIVES” (UNIVERSITY OF SOUTHERN CALIFORNIA, priority 2021, published 2024):

Assays:
[1] = system: UV-B exposed skin; experiment: UV-B induced skin damage in SKH-1 hairless mice; type: in vivo, mouse; details: topical post exposure
Method: (§1) FIG. 23 illustrates the simulation of sunlight by irradiation with UVB lamps (310 nm). The irradiation was conducted in a phototoxicity testing chamber and fitted with a UV-B lamp providing with a spectral output of approximately 310 nm. The source of UVR was a short-wavelength UV lamp (VWR. Radnor, PA). The peak spectral output of this lamp was approximately 310 nm, with no energy detectable below 260 nm, approximately 0.6% between 260 and 280 nm (UV-C), 72.7% between 280 and 320 nm (UV-B), and 26.7% between 320 and 400 nm (UV-A). Radiation dosage of UV-B per irradiation was set at 54 mJ/cm^2 for the first week, 72 mJ/cm^2 for the second week, 90 mJ/cm^2 for the third week, and 108 mJ/cm^2 for the remaining weeks, as confirmed by a UV monitor. Each irradiation event was 10 minutes long.
POH-LA conjugate, linoleic acid, POH, and the additive combination of linoleic acid and POH were each suspended in glycerol:ethanol (90:10 vol/vol) to a final concentration of 10 nM with 50 μL and applied to each SKH-1 hairless mouse post UV-B exposure for treatment. The sunblock mouse was gently wiped on the exposure area with the sunblock towelette. […] In FIG. 23B, the mice were treated with the glycerol:ethanol vehicle only. In FIG. 23C, the mice were treated with POH. In FIG. 23D, the mice were treated with linoleic acid. In FIG. 23E, the mice were treated with an mixture of linoleic acid and POH. In FIG. 23F, the mice were treated with POH-LA conjugate. In FIG. 23G, the mice were treated with sunblock. The application of POH-LA conjugate to UV-B exposed tissue limits the amount of observable skin damage as compared to the untreated control (B) or the individual components of POH-LA conjugate either alone (POH—C and LA—D), in mixture (E), or with sunblock (G).
as §1, with “FIGS. 24A-D illustrates the” for “FIG. 23 illustrates the”, “UV lamp (VWR, Radnor, PA).” for “UV lamp (VWR. Radnor, PA).”, “second week, and 90 mJ/cm^2” for “second week, 90 mJ/cm^2”, “third week, as confirmed” for “third week, and 108 mJ/cm^2 for the remaining weeks, as confirmed”, “UV monitor.” for “UV monitor. Each irradiation event was 10 minutes long.”
POH-LA conjugate (FIG. 24A), linoleic acid (FIG. 24B), POH (FIG. 24C), and the additive combination of linoleic acid and POH (FIG. 24D) were each suspended in glycerol:ethanol (90:10 vol/vol) to a final concentration of 10 nM with 50 μL applied to each mouse post UV-B exposure for treatment. The application of POH-LA conjugate to UV-B exposed tissue limits the amount of observable skin damage as compared the individual components of POH-LA conjugate either alone or in mixture.
as §1, with “This example” for “FIG. 23”, “nm)” for “nm). The irradiation”, “(VWR,” for “(VWR.”, “monitor.” for “monitor. Each irradiation event was 10 minutes long.”
POH-LA conjugate, linoleic acid, POH, and the additive combination of linoleic acid and POH were each suspended in glycerol:ethanol (90:10 vol/vol) to a final concentration of 10 nM with 50 μL applied to each mouse post UV-B exposure for treatment. […]

[2] = system: IL-6; experiment: Serum IL-6 following UV exposure; type: in vivo, mouse
Method: SKH-1 hairless mice were treated with 10 mg/kg POH-LA conjugate freshly prepared daily. The POH-LA conjugate was formulated in glycerol:ethanol (90:10) while the control animals received the glycerol:ethanol vehicle only or the commercially available sunblock (Well & Good Sun Protection Wipes SPF 15). Additional test groups were treated with POH formulated in the glycerol:ethanol vehicle or linoleic acid formulated in the glycerol:ethanol vehicle. 50 μL of each formulation was placed on a area 1 cm^2 area that was exposed to the UV light. The mice were treated with their respective formulations after exposure to the UV light. In FIG. 22A, the mouse was treated with sunblock. In FIG. 22B, the mouse was treated with POH. In FIG. 22C, the mouse was treated with linoleic acid. In FIG. 22D, the mouse was treated with POH-LA conjugate. […] The POH-LA conjugate, POH or linoleic acid solutions were gently spread on the skin surface and allowed to air dry. The sunblock mouse was gently wiped on the exposure area with the sunblock towelette. This exposure and treatment went on for a maximum of 10 weeks. Throughout the experimental period the animals were photographed and weighed. At the end of the experimental period the mice were photographed and euthanized, followed by skin and blood collection. Blood was analyzed for markers of inflammation and DNA recovered from the exposed area of the skin and analyzed for markers of DNA damage.
Furthermore, blood samples were taken from each mouse 4 hours after the last cutaneous treatment. About 0.5 mL of blood was collected by cardiac puncture […]. Serum was aliquoted in Eppendorf tubes and store at −80° C. as preparation for cytokine analyses. […]
Mice were treated with 10 mg/kg POH-LA conjugate freshly prepared daily. […] Blood was analyzed for markers of inflammation and DNA recovered from the exposed area of the skin and analyzed for markers of DNA damage.

[3] = 3 weeks of UV-B exposure and treatment
[4] = 5 weeks of UV-B exposure and treatment

C=C(C)[C@@H]1CC=C(CO)CC1 [POH, perillyl alcohol]
observable skin damage [1, 3]: displayed damage
observable skin damage [1, 4]: displayed damage
IL-6 levels [2]: 17.9 ± 2.8 pg/mL

C=C(C)[C@@H]1CC=C(COC(=O)CCCCCCC/C=C\C/C=C\CCCCC)CC1 [POH-LA conjugate, Octadeca-9,12-dienoic acid 4-isopropenyl-cyclohex-1-enylmethyl ester]
observable skin damage [1, 3]: displayed no damage
observable skin damage [1, 4]: appeared the same as the unexposed control mice skin
IL-6 levels [2]: 15.2 ± 4.1 pg/mL
